Assay results taken from article PMC7872314, “Modeling Bioavailable Concentrations in Zebrafish Cell Lines and Embryos Increases the Correlation of Toxicity Potencies across Test Systems” (Environmental Science & Technology, 2020).
Where two headings read alike, the source gives them in different places.

Columns and labels:
zebrafish embryos [1] = experiment: animal or person; type: in vivo, zebrafish (Danio rerio); conditions: for EC50: Danio rerio
[2] = test system: ZFL (hepatocytes) cell line; experiment: cells; type: cell-based, zebrafish (Danio rerio); conditions: Danio rerio, Hepatocyte
[3] = test system: ZF4 (fibroblasts) cell line; experiment: MTS assay (MTS/BCA multiplex), NAD(P)H metabolism; type: cell-based, zebrafish (Danio rerio); conditions: Danio rerio, Fibroblast
[4] = test system: ZF4 (fibroblasts) cell line; experiment: alamarBlue (AB) endpoint of AB/CFDA/NR multiplex, cellular respiration; type: cell-based, zebrafish (Danio rerio); conditions: Danio rerio, Fibroblast
[5] = test system: ZF4 (fibroblasts) cell line; experiment: ATP assay (ATP/LDH multiplex), ATP metabolism; type: cell-based, zebrafish (Danio rerio); conditions: Danio rerio, Fibroblast
ZF4 and ZFL cell lines = experiment: Cytotoxicity assays, all endpoints, both cell lines (mean/range); type: cell-based, zebrafish (Danio rerio); conditions: 48 h, mean of all cytotoxicity endpoints (without LDH) in ZF4 and ZFL
[6] = test system: ZF4 (fibroblasts) cell line; experiment: CFDA endpoint of AB/CFDA/NR multiplex, membrane stability; type: cell-based, zebrafish (Danio rerio); conditions: Danio rerio, Fibroblast
[7] = test system: ZFL (hepatocytes) cell line; experiment: cells; type: cell-based, zebrafish (Danio rerio); conditions: Danio rerio, Hepatocyte; remark: listed apart in the source
[8] = test system: ZF4 (fibroblasts) cell line; experiment: Neutral red, fluorescence (NRf), AB/CFDA/NR multiplex, lysosome stability; type: cell-based, zebrafish (Danio rerio); conditions: Danio rerio, Fibroblast
[9] = test system: ZFL (hepatocytes) cell line; experiment: cells; type: cell-based, zebrafish (Danio rerio); conditions: Danio rerio, Hepatocyte; remark: listed apart in the source
[10] = test system: ZFL (hepatocytes) cell line; experiment: cells; type: cell-based, zebrafish (Danio rerio); conditions: Danio rerio, Hepatocyte; remark: listed apart in the source
[11] = test system: ZFL (hepatocytes) cell line; experiment: cells; type: cell-based, zebrafish (Danio rerio); conditions: Danio rerio, Hepatocyte; remark: listed apart in the source
zebrafish embryos [12] = test system: zebrafish embryos; parameters: method as in earlier work; conditions: nominal, cited from earlier work
[13] = test system: zebrafish cell lines vs zebrafish embryo; experiment: Potency ratios IC50;x/EC50;x (cytotoxicity assays vs mFET); parameters: species or system zebrafish (Danio rerio)
[14] = test system: ZF4 (fibroblasts) cell line; experiment: Neutral red, absorbance (NRa), AB/CFDA/NR multiplex, lysosome stability; type: cell-based, zebrafish (Danio rerio); conditions: Danio rerio, Fibroblast
[15] = test system: ZFL (hepatocytes) cell line; experiment: cells; type: cell-based, zebrafish (Danio rerio); conditions: Danio rerio, Hepatocyte; remark: listed apart in the source
[16] = test system: ZF4 (fibroblasts) cell line; experiment: BCA assay (MTS/BCA multiplex), protein amount; type: cell-based, zebrafish (Danio rerio); conditions: Danio rerio, Fibroblast
[17] = test system: ZFL (hepatocytes) cell line; experiment: cells; type: cell-based, zebrafish (Danio rerio); conditions: Danio rerio, Hepatocyte; remark: listed apart in the source
[18] = ref Comptox, PubChem or DrugBank; cited from earlier work

Compound: Cc1cc(-n2c(=O)[nH]c(=O)n(C)c2=O)ccc1Oc1ccc(SC(F)(F)F)cc1 [Toltrazuril, toltrazuril]
- difference in toxicity (EC50;nom) between 48 hpf and 144 hpf (zebrafish embryos [1]; 48 hpf time point less sensitive than 144 hpf): marginally more toxic
- log EC50;nom (mFET) (zebrafish embryos [1]; 48 hpf, nominal, log10, listed as Tol): -4.897 M
- EC50 (zebrafish embryos [1]; 48 hpf, nominal, log10, read-out: log EC50;nom (mFET) (converted)): 12.6 µM
- EC50 (zebrafish embryos [1]; 48 hpf, nominal, read-out: EC50;nom (embryo)): 5.4 µg/mL
- EC50 (zebrafish embryos [1]; read-out: EC50 48hpf): 12.7 µM
- EC50 (zebrafish embryos [1]; read-out: EC50;nom (mFET)): 12.7 µM
- IC50 ([2]; AB - ZFL, log10 of IC50, read-out: LogIC50 (converted)): 69.6 µM
- IC50 ([2]; AB - ZFL, read-out: IC50): 69.6 µM
- IC50 ([2]; ZFL, 48 h exposure, nominal, log10, read-out: logIC50 (log10 IC50;nom) AB (converted)): 69.2 µM
- IC50 ([2]; ZFL, 48 h exposure, nominal, read-out: IC50;nom AB): 69.6 µM
- IC50 ([3]; MTS - ZF4, log10 of IC50, read-out: LogIC50 (converted)): 175 µM
- IC50 ([3]; MTS - ZF4, read-out: IC50): 175 µM
- IC50 ([3]; ZF4, 48 h exposure, nominal, log10, read-out: logIC50 (log10 IC50;nom) MTS (converted)): 174 µM
- IC50 ([3]; ZF4, 48 h exposure, nominal, read-out: IC50;nom MTS): 175 µM
- IC50 ([4]; AB - ZF4, log10 of IC50, read-out: LogIC50 (converted)): 97.5 µM
- IC50 ([4]; AB - ZF4, read-out: IC50): 97.5 µM
- IC50 ([4]; ZF4, 48 h exposure, nominal, log10, read-out: logIC50 (log10 IC50;nom) AB (converted)): 97.7 µM
- IC50 ([4]; ZF4, 48 h exposure, nominal, read-out: IC50;nom AB): 97.5 µM
- IC50 ([5]; ATP - ZF4, log10 of IC50, read-out: LogIC50 (converted)): 43.8 µM
- IC50 ([5]; ATP - ZF4, read-out: IC50): 43.8 µM
- IC50 ([5]; ZF4, 48 h exposure, nominal, log10, read-out: logIC50 (log10 IC50;nom) ATP (converted)): 43.7 µM
- IC50 ([5]; ZF4, 48 h exposure, nominal, read-out: IC50;nom ATP): 43.8 µM
- IC50 (ZF4 and ZFL cell lines; Danio rerio, log10, read-out: Mean log IC50nom (converted)): 85.1 µM
- Mean log IC50nom (ZF4 and ZFL cell lines; log10, listed as Tol): -4.074 M
- IC50 ([6]; CFDA - ZF4, log10 of IC50, read-out: LogIC50 (converted)): 104 µM
- IC50 ([6]; CFDA - ZF4, read-out: IC50): 104 µM
- IC50 ([6]; ZF4, 48 h exposure, nominal, log10, read-out: logIC50 (log10 IC50;nom) CFDA (converted)): 105 µM
- IC50 ([6]; ZF4, 48 h exposure, nominal, read-out: IC50;nom CFDA): 104 µM
- IC50 ([7]; BCA - ZFL, log10 of IC50, read-out: LogIC50 (converted)): 294 µM
- IC50 ([7]; BCA - ZFL, read-out: IC50): 294 µM
- IC50 ([7]; ZFL, 48 h exposure, nominal, log10, read-out: logIC50 (log10 IC50;nom) BCA (converted)): 295 µM
- IC50 ([7]; ZFL, 48 h exposure, nominal, read-out: IC50;nom BCA): 294 µM
- IC50 ([8]; NR-fluo - ZF4, log10 of IC50, read-out: LogIC50 (converted)): 81.3 µM
- IC50 ([8]; NR-fluo - ZF4, read-out: IC50): 81.3 µM
- IC50 ([8]; ZF4, 48 h exposure, nominal, log10, read-out: logIC50 (log10 IC50;nom) NRf (converted)): 81.3 µM
- IC50 ([8]; ZF4, 48 h exposure, nominal, read-out: IC50;nom NRf): 81.3 µM
- IC50 ([9]; NR-fluo - ZFL, log10 of IC50, read-out: LogIC50 (converted)): 78.7 µM
- IC50 ([9]; NR-fluo - ZFL, read-out: IC50): 78.7 µM
- IC50 ([9]; ZFL, 48 h exposure, nominal, log10, read-out: logIC50 (log10 IC50;nom) NRf (converted)): 79.4 µM
- IC50 ([9]; ZFL, 48 h exposure, nominal, read-out: IC50;nom NRf): 78.7 µM
- IC50 ([10]; MTS - ZFL, log10 of IC50, read-out: LogIC50 (converted)): 62.8 µM
- IC50 ([10]; MTS - ZFL, read-out: IC50): 62.8 µM
- IC50 ([10]; ZFL, 48 h exposure, nominal, log10, read-out: logIC50 (log10 IC50;nom) MTS (converted)): 63.1 µM
- IC50 ([10]; ZFL, 48 h exposure, nominal, read-out: IC50;nom MTS): 62.8 µM
- IC50 ([11]; ATP - ZFL, log10 of IC50, read-out: LogIC50 (converted)): 20.3 µM
- IC50 ([11]; ATP - ZFL, read-out: IC50): 20.3 µM
- IC50 ([11]; ZFL, 48 h exposure, nominal, log10, read-out: logIC50 (log10 IC50;nom) ATP (converted)): 20.4 µM
- IC50 ([11]; ZFL, 48 h exposure, nominal, read-out: IC50;nom ATP): 20.3 µM
- EC50 (zebrafish embryos [12]; 144 hpf, converted): 2590 nM
- logEC50 144 hpf (zebrafish embryos [12]; log10): -5.5874 M
- in vitro toxicity (IC50;free) higher than EC50;nom ([13]; ZF4 NRa endpoint vs embryo): 2 fold
- potency ratio IC50;nom/EC50;nom (median) ([13]; median over cytotoxicity endpoints, nominal, 48 h cells / 48 hpf mFET): 6.54
- IC50 ([14]; NR-abs - ZF4, log10 of IC50, read-out: LogIC50 (converted)): 49.4 µM
- IC50 ([14]; NR-abs - ZF4, read-out: IC50): 49.4 µM
- IC50 ([14]; ZF4, 48 h exposure, nominal, log10, read-out: logIC50 (log10 IC50;nom) NRa (converted)): 49 µM
- IC50 ([14]; ZF4, 48 h exposure, nominal, read-out: IC50;nom NRa): 49.4 µM
- IC50 ([14]; ZF4 cell line, NRa endpoint, nominal, read-out: IC50;nom): 21 µg/mL
- IC50 ([15]; CFDA - ZFL, log10 of IC50, read-out: LogIC50 (converted)): 122 µM
- IC50 ([15]; CFDA - ZFL, read-out: IC50): 122 µM
- IC50 ([15]; ZFL, 48 h exposure, nominal, log10, read-out: logIC50 (log10 IC50;nom) CFDA (converted)): 123 µM
- IC50 ([15]; ZFL, 48 h exposure, nominal, read-out: IC50;nom CFDA): 122 µM
- IC50 ([16]; BCA - ZF4, log10 of IC50, read-out: LogIC50 (converted)): 141 µM
- IC50 ([16]; BCA - ZF4, read-out: IC50): 141 µM
- IC50 ([16]; ZF4, 48 h exposure, nominal, log10, read-out: logIC50 (log10 IC50;nom) BCA (converted)): 141 µM
- IC50 ([16]; ZF4, 48 h exposure, nominal, read-out: IC50;nom BCA): 141 µM
- IC50 ([17]; NR-abs - ZFL, log10 of IC50, read-out: LogIC50 (converted)): 84.7 µM
- IC50 ([17]; NR-abs - ZFL, read-out: IC50): 84.7 µM
- IC50 ([17]; ZFL, 48 h exposure, nominal, log10, read-out: logIC50 (log10 IC50;nom) NRa (converted)): 85.1 µM
- IC50 ([17]; ZFL, 48 h exposure, nominal, read-out: IC50;nom NRa): 84.7 µM
- BCF [18]: 14.3
- Physiological charge [18]: 0
- Water Solubility [18]: insoluble
- logKoa [18]: 10.2
- logKow [18]: 4.31
- pKa (Strongest Acidic) [18]: 6.47
- w_solubility (water solubility) [18]: 106 µM
